Data on four compounds can be found in patent US20260335323A1, “CHIMERIC MOLECULE” (UCL Business Ltd, priority 2023, published 2026).

What all share (assay type): cell-based, human
The test system of one assay is γH2AX. Put plainly: Western blot, γH2AX in RPE1-hTERT-cMYC-ER cells (replication stress). To be noted: 72 h; NZ-175 at 100 nM with 4-OHT. The protocol: (§1) FIG. 15. NZ-175 rescues oncogenic c-MYC induced replication stress (100 nM, 72 h) (A) Western blot of RPE1-hTERT-cMYC-ER treated with 4-OHT and/or NZ-175 at 100 nM for 72 hours. 4-OHT treatment simulates oncogenic c-MYC-induced replication stress, observed by upregulation of phospho-CHK1 (S345), pRPA (S4/S8) and γH2AX. […] Quantification of blot is shown for pCHK1 […] (B), pRPA (S4/S8) (C), and YH2AX (D). n=3, mean±SEM, *p<0.05, ** p<0.01, *** p<0.001.
(§2) Cells were homogenised in protein lysis buffer consisting of 0.1 M Tris pH 8.0, 0.1 M NaCl, 5% glycerol, IGEPAL® CA-630 (#18896. Sigma-Aldrich) and 5 mM EDTA, 0.1 M N-ethyl maleimide (ThermoFisher, #23030) and protease inhibitor (Cell Signalling Technologies, #5871). Protein concentrations were determined using the BCA assay to ensure equal loading. […] The membranes were immunoblotted with primary antibodies, overnight at 4° C. […]
(§3) Membranes were then incubated with horseradish peroxidase (HRP)-conjugated secondary antibodies (Rabbit #7074 and Mouse #7076) purchased from Cell Signalling Technologies for 1 hour and the HRP signal was detected using EZ-ECL Enhanced Chemiluminescence Detection Kit for HRP (#20-500-500, Sartorius), and imaged with an Alliance Q9 Advanced (UVITec). […]
(§4) To see if NZ-175 could rescue this phenotype, RPE1-hTERT-cMYC-ER cells treated with 4-OHT and/or 100 nM NZ-175 for 72 h were analysed by Western blotting (FIG. 15A). […]

The next assay concerns phospho-CHK1 (S345). Put plainly: Western blot, phospho-CHK1 in RPE1-hTERT-cMYC-ER cells (replication stress). The note with it: 72 h; NZ-175 at 100 nM with 4-OHT. The protocol:
as §1, §2, §3, §4

The test system of another assay is pRPA (S4/S8). Put plainly: Western blot, pRPA (S4/S8) in RPE1-hTERT-cMYC-ER cells (replication stress). To be noted: 72 h; NZ-175 at 100 nM with 4-OHT. The protocol: as §1, §2, §3, §4
For another assay, the system named is c-MYC controlled genes. As to the kind of experiment: RT-qPCR of c-MYC controlled genes in CAL51 cells. The note with it: 100 nM, 72 hours. The protocol:
FIG. 11. RT-qPCR quantification of expression of c-MYC controlled genes in CAL51 triple negative breast cancer cell line treated with DMSO, 100 nM (+)-JQ1 or 100 nM NZ-147 for 72 hours. […] MDM2 (A) and CCNE (B) are controlled by cMYC in oncogenic settings, PAICS (C) is a putative target of c-MYC, and eIF4E (D) is a known target of cMYC. n=3, *p<0.05, ** p<0.01, *** p<0.001.
RNA was extracted with the Qiagen RNeasy Mini kit following manufacturers protocol. RT-qPCR SYBR assay was carried out with Mesa Blue following manufacturers instructions, 80 ng RNA per well, experimental triplicates, BioRad CTX Connect qPCR machine. RNA levels were normalized to GAPDH. Experiments were done in biological triplicate. The primers used were as follows:
The levels of c-MYC controlled genes (determined using RT-qPCR) in CAL51 triple negative breast cancer cell line after treatment with DMSO, 100 nM (+)-JQ1 or 100 nM NZ-147 for 72 hours is shown in FIG. 11. In particular MDM2 (FIG. 11A) and CCNE (FIG. 11B) are controlled by cMYC in oncogenic settings, PAICS (FIG. 11C) is a putative target of c-MYC, and elF4E (FIG. 11D) is a known target of c-MYC.
Background: In qPCR the cycle at which signal appears reflects the starting amount.

In assay [1] the test system is A549 cells. Put plainly: Cell viability assay (CellTiter Glo), A549. The note with it: A549, increasing concentrations. The protocol: (§5) A549 and H1299 cells were seeded in OptiPlate-384 well plates and treated with increasing concentrations of (+)-JQ1 or NZ-147 from 0 μM to 10 µM in Example 8 and with increasing concentrations of NZ-175 from 0 µM to 10 µM in Example 9. Cells were treated for 120 h before using the luciferase based CellTiter Glo assay (Promega) to measure cell viability.
(§6) Cell viability assay was performed in A549 and H1299 cells, which were treated with different concentrations of (+)-JQ1 or NZ-147 at 100 nM for 72 hours (FIG. 10B).
(§7) Cell viability assay was performed in A549 and H1299 cells, which were treated with different concentrations of NZ-147 at 100 nM for 72 hours (FIG. 16B).
On the technique in general: ATP-based viability assays read luminescence as a measure of living cells.

For assay [2], the system named is H1299 cells. Put plainly: Cell viability assay (CellTiter Glo), H1299. To be noted: H1299, increasing concentrations. The protocol:
as §5, §6, §7

In assay [3] the test system is p-Ub (S65). As to the kind of experiment: Western blot, p-Ub (S65) in WT fibroblasts. The note with it: 10 μM FCCP, 2 h. The protocol: (§8) FIG. 7. ULKTACs restore mitophagic activity in PINK-null PD patient fibroblasts (A) Western blot of patient derived fibroblasts, healthy control vs. PINK null, treated with […] NZ-65 or NZ-66 for 18 h or 10 μM FCCP for 2 h and probed for total Ub, pUb(S65), Mfn2 and b-Actin with quantification for the changes in the pUB (S65): Total Ub ratio shown in (B) and Mfn2 (C), respectively normalised to b-Actin. (D) Representative immunofluorescence of primary human fibroblasts isolated from wild type controls and PINK-null Parkinson's disease patients, treated with 10 µM FCCP, 1 μM NZ-65 or 1 μM NZ-66 and immunostained for TOM20 and ULK1; counterstained with Alexa 488 and Alexa 568 antibodies. Nuclei stained with Hoechst 33342. The quantification of these immunofluorescence experiments is shown in (E). Data shown are mean±SEM, n=3, *** p<0.001, two-way ANOVA with Tukey's multiple comparisons test.
as §2
(In general: A western blot detects proteins with antibodies after separation by electrophoresis.)

The test system of assay [4] is p-Ub (S65). Put plainly: Western blot, p-Ub (S65) in PINK-null PD patient fibroblasts. The protocol: as §8, §2
The next assay relates to MAX. As to the kind of experiment: Western blot, MAX in RPE1-hTERT-cMYC-ER cells. To be noted: 100 nM, 72 h, 4-OHT and/or compound. The protocol: (§9) FIG. 12. c-MYC and MAX degradation enabled by NZ-175. (A) Schematic representation of hTERT-cMYC-ER expressing RPE1 cells. Treatment with 4-hydroxytamoxifen (4-OHT) translocates c-MYC-ER from the cytoplasm into the nucleus, simulating oncogenic c-MYC. (B) Western blot of RPE1-hTERT-cMYC-ER treated with 4-OHT and/or 100 nM NZ-175 for 72 hours. Quantification of c-MYC-ER (C), c-MYC (D) and MAX (E).
as §2, §3
(§10) RPE1-hTERT-cMYC-ER cells were treated with 4-OHT and/or 100 nM NZ-175 for 72 h and analysed by Western blotting (FIG. 12A). The levels of c-MYC-ER (FIG. 12B), c-MYC (FIG. 12C) and MAX (FIG. 12D) were quantified.

For assay [5], the system named is c-MYC. Put plainly: c-MYC immunofluorescence in hTERT-cMYC-ER expressing RPE1 cells. To be noted: 100 nM, 72 hours, 4-OHT and/or compound. The protocol: FIG. 9. (A) Schematic representation of hTERT-cMYC-ER expressing RPE1 cells. Treatment with 4-hydroxytamoxifen (4-OHT) translocates c-MYC-ER from the cytoplasm into the nucleus, simulating oncogenic c-MYC. (B) Immunofluorescence images of hTERT-cMYC-ER expressing RPE1 cells treated with DMSO, (+)-JQ1 or NZ-147 at 100 nM for 72 hours, each with or without 4-OHT.
RPE1-hTERT-c-MYC-ER cells were seeded in a 384 well PerkinElmer CellCarrier Ultra plate. In Example 8, cells were treated for 72 hours with DMSO, (+)-JQ1±4-OHT, or, NZ-147±4-OHT. In Example 9, cells were treated for 72 hours with 4-OHT, NZ-175, both, or neither. Thereafter, in both Examples 8 and 9, cells were fixed with 4% paraformaldehyde (PFA) in phosphate buffered saline (PBS) and blocked with 10% FBS and 0.1% Triton in PBS. Plates were incubated at 4° C. overnight, with 1:500 rabbit anti-c-MYC (D84C12) rabbit monoclonal antibody (#5605, Cell Signalling Technologies). The following day, plates were incubated with 1:1000 goat anti-rabbit Alexa 488 (ThermoFisher Scientific, #A-11008) and 1.62 μM Hoechst 33342 at room temperature for 1 hour before imaging. Excitation and emission spectra for each channel are as follows: Hoechst 33342=405/435-480 nm, Alexa 488=488/500-550 nm. Images were acquired at 40× and 63× magnification with water immersion lens.

For assay [6], the system named is A549 cells. As to the kind of experiment: Colony formation assay, A549. The note with it: A549, 100 nM, 72 hours. The protocol:
(§11) A549 and H1299 cells were seeded in 12 well plates at approximately 100 cells per well. In Example 8, wells were treated with DMSO, (+)-JQ1 or NZ-147. In Example 9, cells were treated with DMSO or NZ-175. Colonies were allowed to form over 120 h. Cells were fixed and stained with crystal violet staining solution, prepared in 70% ethanol.
(§12) A colony formation assay was performed in A549 and H1299 cells, which were treated with DMSO, (+)-JQ1 or NZ-147 at 100 nM for 72 hours and stained with crystal violet (FIG. 10A).
(§13) A colony formation assay was performed in A549 and H1299 cells, which were treated with DMSO or NZ-175 at 100 nM for 72 hours and stained with crystal violet (FIG. 16A).

In assay [7] the test system is c-MYC. Put plainly: Western blot, c-MYC in RPE1-hTERT-cMYC-ER cells. The note with it: 100 nM, 72 h, 4-OHT and/or compound. The protocol:
as §9, §2, §3, §10

For assay [8], the system named is H1299 cells. As to the kind of experiment: Colony formation assay, H1299. To be noted: H1299, 100 nM, 72 hours. The protocol: as §11, §12, §13

With “4-hydroxytamoxifen [4-OHT, reference compound]”, in the assay with γH2AX, the “γH2AX, replication stress” value is recorded as “upregulation”. The “phospho-CHK1 (S345), replication stress” value in the assay with phospho-CHK1 (S345) is “upregulation”. In the assay on pRPA (S4/S8), the “pRPA (S4/S8), replication stress” value was “upregulation”.

With `Cc1sc2c(c1C)C(c1ccc(Cl)cc1)=N[C@@H](CC(=O)OC(C)(C)C)c1nnc(C)n1-2` [(+)-JQ1, reference compound], in the assay on c-MYC controlled genes, the “expression of c-MYC controlled genes (MDM2, CCNE, PAICS, eIF4E)” value is given as “reduces the expression of c-MYC controlled genes”. Moreover, the “percentage of live cells” value in the assay on A549 cells [1] and with H1299 cells [2] was “dose-dependent decrease in the percentage of live cells” in each case.

For `N#CC(C#N)=NNc1ccc(OC(F)(F)F)cc1` [FCCP], the “p-Ub (S65) levels” value in the assay with p-Ub (S65) [3] is “substantial increase in p-Ub (S65) levels”; in the assay on p-Ub (S65) [4], “does not occur in the PINK-null cells”.

Consider `C/C=C/C(=O)NCc1ccc(C(=O)Nc2ccccc2Oc2ccc(OCC(=O)NCCOCCOCCOCCn3cc(COc4ccc([C@@H](NC(=O)Nc5cc(C(F)(F)F)cc(C(F)(F)F)c5)C(=O)Nc5ccc(F)cc5F)cc4)nn3)cc2)cc1` [NZ-175, (R)-4-(crotonylamidomethyl)-N-(2-(4-((14-(4-((4-(1-(3-(3,5-bis(trifluoromethyl)phenyl)ureido)-2-((2,4-difluorophenyl)amino)-2-oxoethyl)phenoxy)methyl)-1H-1,2,3-triazol-1-yl)-2-oxo-6,9,12-trioxa-3-azatetradecyl)oxy)phenoxy)phenyl) benzamide], for which the “γH2AX, replication stress” value with γH2AX is “rescues this phenotype”. The “degradation of MAX” value in the assay on MAX is recorded as “proximal degradation of MAX”. In addition, the “c-MYC degradation (time-course immunofluorescence)” value in the assay with c-MYC [5] is reported as “c-MYC degradation”. Besides, in the assay on phospho-CHK1 (S345), the “phospho-CHK1 (S345), replication stress” value is reported as “rescues this phenotype”. The “pRPA (S4/S8), replication stress” value in the assay on pRPA (S4/S8) was “rescues this phenotype”. The colony formation result in the assay with A549 cells [6] and in the assay on H1299 cells [8] was “Fewer colonies formed” in each case. In addition, the “degradation of c-MYC” value in the assay on c-MYC [7] was “initiates degradation of c-MYC”.
